Experimental findings from ChEMBL document CHEMBL6120973 (J Med Chem, 2024) are described below.

The structures appear in SMILES notation. Some results are limits rather than exact numbers.

The test system of series [1] is Human immunodeficiency virus 1. The series is described as follows: Antiviral activity against HIV-1 harboring RT E138K mutant infected in human MT4 cells assessed as protection against virus-induced cytopathic effect incubated for 5 days by MTT assay. Format: functional, organism-based. The note with it: Human immunodeficiency virus 1, MT4, 120 h. (In general: Cytopathic effects are the visible damage that an infection or toxin causes in cultured cells.)

Series [2] deals with Human immunodeficiency virus type 1 reverse transcriptase (Human immunodeficiency virus 1, UniProt Q72547). The series is described as follows: Inhibition of recombinant wild type HIV-1 Reverse transcriptase incubated for 40 mins by Pico-green reagent based fluorescence analysis.
Series [3] concerns Human immunodeficiency virus 1. The series is described as follows: Antiviral activity against HIV-1 harboring RT Y181C mutant infected in human MT4 cells assessed as protection against virus-induced cytopathic effect incubated for 5 days by MTT assay. It counts as functional, organism-based. The note with it: Human immunodeficiency virus 1, MT4, 120 h.
In series [4] the test system is Human immunodeficiency virus 1. The series is described as follows: Antiviral activity against HIV-1 harboring RT K103N/Y181C double mutant infected in human MT4 cells assessed as protection against virus-induced cytopathic effect incubated for 5 days by MTT assay. It counts as functional, organism-based. The conditions noted are these: Human immunodeficiency virus 1, MT4, 120 h.

Series [5] has as its system Human immunodeficiency virus 1. The series is described as follows: Antiviral activity against HIV-1 harboring RT K103N mutant infected in human MT4 cells assessed as protection against virus-induced cytopathic effect incubated for 5 days by MTT assay. It counts as functional, organism-based. The note with it: Human immunodeficiency virus 1, MT4, 120 h.
Series [6] concerns Human immunodeficiency virus 1. The series is described as follows: Antiviral activity against HIV-1 harboring RT L100I mutant infected in human MT4 cells assessed as protection against virus-induced cytopathic effect incubated for 5 days by MTT assay. Format: functional, organism-based. The note with it: Human immunodeficiency virus 1, MT4, 120 h.
Series [7] deals with Human immunodeficiency virus 1. As to the kind of experiment: Antiviral activity against HIV-1 harboring RT Y188L mutant infected in human MT4 cells assessed as protection against virus-induced cytopathic effect incubated for 5 days by MTT assay. The conditions noted are these: Human immunodeficiency virus 1, MT4, 120 h. It counts as functional, organism-based.
A short description of series [8]: Selectivity index, ratio of CC50 for human MT4 cells to EC50 for wild type HIV-1 IIIB infected in human MT4 cellS. The note with it: MT4 cells.
Series [9] can be described thus: Cytotoxicity against human MT4 cells assessed as reduction in cell viability measured after 5 days by MTT assay. The conditions noted are these: MT4 cells. (Tetrazolium assays rely on reduction of a dye to a coloured formazan, in cell work by metabolically active cells.)
Series [10] deals with Human immunodeficiency virus 1. The series is described as follows: Antiviral activity against HIV-1 harboring RT F227L/V106A double mutant infected in human MT4 cells assessed as protection against virus-induced cytopathic effect incubated for 5 days by MTT assay. It counts as functional, organism-based. The conditions noted are these: Human immunodeficiency virus 1, MT4, 120 h.

In series [11] the test system is Human immunodeficiency virus 1. The series is described as follows: Antiviral activity against wildtype HIV-1 IIIB infected in human MT4 cells assessed as protection against virus-induced cytopathic effect incubated for 5 days by MTT assay. Format: functional, organism-based. The conditions noted are these: Human immunodeficiency virus 1, IIIB, MT4, 120 h.

Regarding `Cc1cc(-c2cnc(Nc3ccc(C#N)cc3)nc2Nc2c(C)cc(-c3ccncc3)cc2C)ccn1`, the concentration giving a half-maximal response (EC50) was 29 nM in series [1]; 75 nM in [3]; 942 nM in series [4]; 21 nM in series [5]; 71 nM in series [6]; 93 nM in [7]. In addition, the figures for the EC50 in [10] and in series [11] were 1330 nM and 9 nM, respectively. In addition, the 50% inhibitory concentration (IC50) in series [2] is 127 nM. Moreover, the selectivity ratio in series [8] is 1630. For the same molecule, the CC50 at 120 h in series [9] stood at 14900 nM.
With `Cc1cc(-c2ccncc2)cc(C)c1Nc1nc(Nc2ccc(C#N)cc2)ncc1-c1cncc(Cl)c1`, the EC50 in series [1] worked out at 45 nM; in [3], 78 nM; in series [4] it was 982 nM; in series [5], 37 nM; in [6], 117 nM; in series [7], 121 nM. Moreover, the concentration for a half-maximal effect (EC50) in series [10] is 1530 nM; in [11] it was 8 nM. Further, the concentration for half-maximal inhibition (IC50) in series [2] came out at 197 nM. Moreover, in series [8], the selectivity ratio is greater than 32800. The cytotoxic concentration (CC50) at 120 h in series [9] is greater than 248000 nM.
With `Cc1cc(-c2ccncc2)cc(C)c1Nc1nc(Nc2ccc(C#N)cc2)ncc1-c1ccncc1`, the concentration for a half-maximal effect (EC50) in [1] turned out to be 41 nM; in series [3], 139 nM; in series [4], 1170 nM; in series [5], 23 nM; in series [6], 92 nM; in series [7], 182 nM. The EC50 in [10] turned out to be 1980 nM; in [11] it was 14 nM. Besides, the 50% inhibitory concentration (IC50) in series [2] was 59 nM. The selectivity ratio in series [8] is greater than 19100. The CC50 at 120 h in [9] was greater than 266000 nM.
Consider `Cc1cc(-c2ccncc2)cc(C)c1Nc1nc(Nc2ccc(C#N)cc2)ncc1-c1cccs1`, for which the EC50 worked out at 12 nM in [1]; 39 nM in series [3]; 148 nM in series [4]; 5 nM in series [5]; 18 nM in series [6]; 29 nM in [7]. For the same molecule, the EC50 was 136 nM in [10] and 11 nM in series [11]. Moreover, the IC50 in [2] is 75 nM. Moreover, the selectivity ratio in series [8] is greater than 24100. In [9], the 50% cytotoxic concentration (CC50) at 120 h was greater than 264000 nM.
With `COc1cc(-c2cnc(Nc3ccc(C#N)cc3)nc2Nc2c(C)cc(-c3ccncc3)cc2C)ccn1`, the half-maximal effective concentration (EC50) came to 16 nM in [1]; 61 nM in series [3]; 594 nM in series [4]; 21 nM in series [5]; 51 nM in series [6]; 91 nM in [7]. Also, the EC50 in series [10] turned out to be 611 nM; in series [11], 9 nM. Also, in series [2], the 50% inhibitory concentration (IC50) is 115 nM. Moreover, in series [8], the selectivity ratio amounted to 6750. Further, the CC50 at 120 h in [9] amounted to 59900 nM.
Take `Cc1cc(-c2ccncc2)cc(C)c1Nc1nc(Nc2ccc(C#N)cc2)ncc1-c1ccnc(F)c1`: the concentration giving a half-maximal response (EC50) turned out to be 8 nM in [1]; 45 nM in series [3]; 425 nM in [4]; 7 nM in series [5]; 94 nM in series [6]; 45 nM in series [7]. The results for the 50% effective concentration (EC50) in [10] and in series [11] were 1370 nM and 8 nM, respectively. The IC50 in [2] stood at 111 nM. For the same molecule, in [8], the selectivity ratio is greater than 31500. Also, the cytotoxic concentration (CC50) at 120 h in series [9] is greater than 256000 nM.
As for `Cc1ccc(-c2cnc(Nc3ccc(C#N)cc3)nc2Nc2c(C)cc(-c3ccncc3)cc2C)cn1`, the EC50 in series [1] amounted to 7 nM; in [3] it was 47 nM; in [4] it was 401 nM; in [5], 6 nM; in series [6] it was 49 nM; in series [7], 54 nM. In addition, the EC50 amounted to 496 nM in series [10] and 5 nM in [11]. In series [2], the IC50 was found to be 132 nM. For the same molecule, the selectivity ratio in series [8] came out at 38900. For the same molecule, the 50% cytotoxic concentration (CC50) at 120 h in [9] was 198000 nM.
Regarding `Cc1cc(-c2ccncc2)cc(C)c1Nc1nc(Nc2ccc(C#N)cc2)ncc1-c1ccco1`, the 50% effective concentration (EC50) in series [1] was 7 nM; in series [3] it was 24 nM; in [4] it was 102 nM; in series [5] it was 3 nM; in series [6] it was 7 nM; in [7], 15 nM. For the same molecule, the EC50 stood at 142 nM in series [10] and 4 nM in [11]. Also, the IC50 in [2] is 84 nM. In [8], the selectivity ratio came to 2060. Further, the CC50 at 120 h in series [9] was 7970 nM.

In general, EC50 refers to the concentration giving half of the maximal effect. For orientation: IC50 means the point on the concentration scale where inhibition reaches its midpoint. What is called CC50 is the concentration that lowers cell viability or growth by half.
